From article PMC3812159, “A Comparative Analysis of the Ubiquitination Kinetics of Multiple Degrons to Identify an Ideal Targeting Sequence for a Proteasome Reporter” (PLoS ONE, 2013)
Where two headings read alike, the source gives them in different places. Residues, ends and D or L forms follow the SMILES beside them. *: point of attachment. 5FAM = O=C1OC2(c3ccc(O)cc3Oc3cc(O)ccc32)c2ccc(C(=O)*)cc21

Columns and labels:
[1] = system: endogenous proteases and peptidases found in the S100 lysates
[2] = system: HeLa S100 cytosolic lysates as the source of E1, E2, and E3 enzymes; assay: Ubiquitin pull down assay with methylated ubiquitin, multi-monoubiquitination kinetic model; type: biochemical; details: for k1/k5, mono-ubiquitination vs. degradation of unmodified substrate: ratio of fitted rate constants, >1 favours ubiquitination, <1 degradation; for substrate ubiquitination, fluorescent intensity compared to unmodified substrate: ubiquitin pull down, methylated ubiquitin, time points up to 240 min, n = 3
From the text: A second model based on substrate multi-monoubiquitination was developed and evaluated. This model assumed that the generation of di-, tri-, and tetra-ubiquitinated species was the result of multiple methylated ubiquitins being conjugated to the multiple available lysines found on the degron-based substrate (Figure 3a). As opposed to the polyubiquitination model, the multi-monoubiquitination model accurately fit the data for all eight degron-based substrates (Figure 3b–d, Figure S4 in File S1, Table 2). Using this model, kinetic rate constants for all ubiquitination (k1 for mono-, k2 for di-, k3 for tri-, and k4 for tetra-) and peptidase-dependent degradation steps (Table 2) were calculated. The multi-monoubiquitination model nicely corresponded to the observed results in Figure 2. […] The model also captured the preference for di-ubiquitination of the Cyclin D1 degron (k2 is two-fold greater than k1) and the equal preference of mono- and di-ubiquitination states found in the HIF-1α degron (k1 of 2.6 and k2 of 3.0). Further, the similar behavior and observed kinetics for IFNAR and TAZ degrons were mostly likely due to the fact that these degrons are recognized by the same E3 ligase, SCF^βTrCP (Table 1). To test the robustness of the multi-monoubiquitination model, a ninth substrate based on the degron from the protein β-Catenin was assessed. This substrate was selected because it is ubiquitinated by the same E3 ligase as TAZ and IFNAR1, SCF^βTrCP. The model accurately fit the data for the multi-monoubiquitination of the β-Catenin degron-based substrate with similar rate constants compared to the TAZ and IFNAR1-based substrates (Table 2). Finally, it was important to assess the validity of the model by addressing the relative goodness of fit between the experimental data and the model predictions as determined from the multi-monoubiquitination model. For this particular analysis it was decided to calculate the sample Pearson correlation coefficient (Eq. S10 in File S1), a widely used metric to measure the dependence between two variables. A correlation coefficient was calculated between the model predictions and experimental data for mono-, di-, tri-, and tetra-ubiquitinated substrate for all nine degron-based substrates (Table S1 in File S1). As per convention, a positive value approaching 1 corresponds to a very good fit, which is observed for all nine substrates indicating a good fit between model and data.

[3] = system: endogenous proteases and peptidases found in the S100 lysates; assay: Peptidase-dependent degradation rate constants from the multi-monoubiquitination model; details: values multiplied by 10^3; for k5, rate constant for peptidase-dependent degradation of unmodified parent substrate: HeLa S100 cytosolic lysates 2 mg/mL, proteasome inhibited by 100 µM MG-132, pH 7.6, 37°C, 12-14 µM peptide, model-fitted (MCMC), degraded substrate not measured; for k6, rate constant for peptidase-dependent degradation of mono-ubiquitinated substrate / k7, rate constant for peptidase-dependent degradation of di-ubiquitinated substrate / k8, rate constant for peptidase-dependent degradation of tri-ubiquitinated substrate / k9, rate constant for peptidase-dependent degradation of tetra-ubiquitinated substrate: as k5, HeLa S100 lysates, MG-132, 37°C, model-fitted

k6, rate constant for peptidase-dependent degradation of mono-ubiquitinated substrate [1] | k7, rate constant for peptidase-dependent degradation of di-ubiquitinated substrate [1] | k8, rate constant for peptidase-dependent degradation of tri-ubiquitinated substrate [1] | k9, rate constant for peptidase-dependent degradation of tetra-ubiquitinated substrate [1] | k1/k5, mono-ubiquitination vs. degradation of unmodified substrate [2] | substrate ubiquitination, fluorescent intensity compared to unmodified substrate [2] | Compound | k5, rate constant for peptidase-dependent degradation of unmodified parent substrate [3] | k6, rate constant for peptidase-dependent degradation of mono-ubiquitinated substrate [3] | k7, rate constant for peptidase-dependent degradation of di-ubiquitinated substrate [3] | k8, rate constant for peptidase-dependent degradation of tri-ubiquitinated substrate [3] | k9, rate constant for peptidase-dependent degradation of tetra-ubiquitinated substrate [3]
1.5 (1/min)*10^3 | 0.1 (1/min)*10^3 | 0.5 (1/min)*10^3 | 0.1 (1/min)*10^3 | 2.65 | – | KPFLNGGPYHSREQSTDSGLGLGSYK(FAM)KKK [TAZ, fluorescein-tagged degron-based peptide substrate from TAZ, E3 ligase SCF^βTrCP] | – | – | – | – | –
0.01 (1/min)*10^3 | 0.01 (1/min)*10^3 | 0.01 (1/min)*10^3 | 0.33 (1/min)*10^3 | – | lowest degree of ubiquitination | K-(PEG)-DVQKADVSSTGQGIDSK(FAM)KKK [SRC3, fluorescein-tagged degron-based peptide substrate from SRC3, E3 ligase SPOP] | – | – | – | – | –
0.01 (1/min)*10^3 | 0.01 (1/min)*10^3 | 0.01 (1/min)*10^3 | 1.8 (1/min)*10^3 | 0.47 | lowest degree of ubiquitination | KAAEEEEVSLASTPTDVRDVDIK(FAM)KKK [Cyclin D1, fluorescein-tagged degron-based peptide substrate from Cyclin D1, E3 ligase SCF^FBX4] | – | – | – | – | –
0.01 (1/min)*10^3 | 0.01 (1/min)*10^3 | 0.01 (1/min)*10^3 | 0.1 (1/min)*10^3 | 0.96 | – | KKYSSQTSQDSGNYSNK(FAM)KKK [IFNAR1, fluorescein-tagged degron-based peptide substrate from IFNAR1, E3 ligase SCF^βTrCP] | – | – | – | – | –
1.0 (1/min)*10^3 | 0.01 (1/min)*10^3 | 0.01 (1/min)*10^3 | 0.3 (1/min)*10^3 | 1.62 | higher ubiquitination | K-(PEG)-KEEKDINNNVKKTK(FAM)KKK [iNOS, fluorescein-tagged degron-based peptide substrate from iNOS, E3 ligase unknown] | – | – | – | – | –
0.01 (1/min)*10^3 | 0.01 (1/min)*10^3 | 0.01 (1/min)*10^3 | 0.33 (1/min)*10^3 | – | – | CC(=O)N[C@@H](CCCCN)C(=O)N1CCC[C@H]1C(=O)N[C@@H](CC(C)C)C(=O)N[C@@H](CO)C(=O)N[C@@H](CO)C(=O)N[C@@H](CO)C(=O)N[C@H](C(=O)N1CCC[C@H]1C(=O)N[C@@H](CO)C(=O)N[C@@H](CCC(N)=O)C(=O)N[C@@H](CCCCN)C(=O)N[C@H](C(=O)N[C@@H](Cc1ccc(O)cc1)C(=O)N[C@@H](CCC(N)=O)C(=O)NCC(=O)N[C@@H](CO)C(=O)N[C@@H](Cc1ccc(O)cc1)C(=O)NCC(=O)N[C@@H](Cc1ccccc1)C(=O)N[C@@H](CCCNC(=N)N)C(=O)N[C@@H](CC(C)C)C(=O)NCC(=O)N[C@@H](CCCCNC(=O)c1ccc2c(c1)C(=O)OC21c2ccc(O)cc2Oc2cc(O)ccc21)C(=O)N[C@@H](CCCCN)C(=O)N[C@@H](CCCCN)C(=O)N[C@@H](CCCCN)C(N)=O)[C@@H](C)O)C(C)C [p53] (Ac-KPLSSSVPSQKTYQGSYGFRLGK(5FAM)KKK-NH2) | – | – | – | – | –
– | – | – | – | – | – | CC[C@H](C)[C@H](NC(=O)[C@H](Cc1ccc(O)cc1)NC(=O)[C@@H]1CCCN1C(=O)[C@H](C)NC(=O)[C@H](CC(C)C)NC(=O)[C@H](C)NC(=O)[C@H](CCC(=O)O)NC(=O)[C@H](CC(C)C)NC(=O)[C@H](CC(=O)O)NC(=O)[C@H](CC(C)C)NC(=O)[C@H](CC(=O)O)NC(=O)[C@H](C)NC(=O)[C@H](CO)NC(=O)[C@H](C)NC(C)=O)C(=O)N1CCC[C@H]1C(=O)N[C@@H](C)C(=O)N[C@@H](CC(=O)O)C(=O)N[C@@H](CC(=O)O)C(=O)N[C@@H](CC(=O)O)C(=O)N[C@@H](Cc1ccccc1)C(=O)N[C@@H](CCC(N)=O)C(=O)N[C@@H](CC(C)C)C(=O)N[C@@H](CCCNC(=N)N)C(=O)N[C@@H](CCCCNC(=O)c1ccc2c(c1)C(=O)OC21c2ccc(O)cc2Oc2cc(O)ccc21)C(=O)N[C@@H](CCCCN)C(=O)N[C@@H](CCCCN)C(=O)N[C@@H](CCCCN)C(N)=O [HIF-1α] (Ac-ASADLDLEALAPYIPADDDFQLRK(5FAM)KKK-NH2) | 7.0 (1/min)*10^3 | 0.1 (1/min)*10^3 | 0.1 (1/min)*10^3 | 0.4 (1/min)*10^3 | 0.8 (1/min)*10^3
– | – | – | – | – | – | CC(=O)N[C@@H](CCCCN)C(=O)N[C@H](C(=O)N[C@@H](CCCNC(=N)N)C(=O)NCC(=O)N[C@H](C(=O)N[C@@H](CCC(=O)O)C(=O)N[C@@H](CCC(=O)O)C(=O)N[C@H](C(=O)N[C@@H](C)C(=O)N[C@@H](CCC(=O)O)C(=O)NCC(=O)N[C@H](C(=O)N[C@H](C(=O)N[C@@H](CC(C)C)C(=O)N[C@@H](CC(C)C)C(=O)N[C@@H](CCCNC(=N)N)C(=O)N[C@@H](CCCNC(=N)N)C(=O)N[C@@H](CCCNC(=N)N)C(=O)NCC(=O)N[C@@H](CC(N)=O)C(=O)N[C@@H](CCCCNC(=O)c1ccc2c(c1)C(=O)OC21c2ccc(O)cc2Oc2cc(O)ccc21)C(=O)N[C@@H](CCCCN)C(=O)N[C@@H](CCCCN)C(=O)N[C@@H](CCCCN)C(N)=O)C(C)C)C(C)C)C(C)C)C(C)C)[C@@H](C)O [Bonger] (Ac-KTRGVEEVAEGVVLLRRRGNK(5FAM)KKK-NH2) | 4.0 (1/min)*10^3 | 0.01 (1/min)*10^3 | 1.0 (1/min)*10^3 | 0.01 (1/min)*10^3 | 0.01 (1/min)*10^3
